According to US20040175813A1, “Mutant P53 proteins and uses thereof” (priority 2002, published 2004):

Test system: MCF-7 c-Jun over-expressing cells
Assay: Sensitivity of c-Jun over-expressing cells to apoptotic inducing agents, DNA fragmentation
Format: cell-based, human
Settings: for DNA fragmentation in cells cultured with the agent: FIG. 4A; for Sensitivity of c-Jun over-expressing cells to the apoptotic inducing agent: compared to vector control, FIG. 3
Description: Human MCF-7 cells were stably transfected with wild type transcription factor c-jun and expressed high levels of c-Jun protein. The c-Jun over-expressing MCF-7 cells were obtained from Drs. Michael Birrer (National Institutes of Health, National Cancer Institute, Rockville, Md.) and Paul Brown (Baylor College of Medicine, Houston, Texas). A description of the c-Jun over-expressing MCF-7 cells can be found in Yang et al. (1997) and Smith et al. (1999).
Bax levels were not altered (FIG. 2A).

Compound	DNA fragmentation in cells cultured with the agent	Sensitivity of c-Jun over-expressing cells to the apoptotic inducing agent
ceramide	high degree of DNA fragmentation	highly sensitive
CC1=C(/C=C/C(C)=C/C=C/C(C)=C/C(=O)Nc2ccc(O)cc2)C(C)(C)CCC1 [N-(4-hydroxyphenyl) retinamide (4-HPR), N-(4-hydroxyphenyl) retinamide]	high degree of DNA fragmentation	highly sensitive
Cc1c(C)c2c(c(C)c1OC(=O)CCC(=O)O)CC[C@@](C)(CCC[C@H](C)CCC[C@H](C)CCCC(C)C)O2 [vitamin E succinate (VES), vitamin E succinate]	high degree of DNA fragmentation	highly sensitive
